{"source": "patent US20240139191A1", "about": "“SMALL MOLECULES AS LARP1 LIGANDS” (priority 2020, published 2024)", "target": "LARP1 DM15 region (Homo sapiens, UniProt Q6PKG0)", "experiment": "binding of LARP1 DM15 region to capped RNA motifs", "conditions": "relative to endogenous (human) m7GpppC motif; FIGS. 1B & C", "data": [{"compound": "Cn1c[n+]([C@@H]2O[C@H](COP(=O)(O)OP(=O)(O)OP(=O)(O)OC[C@H]3O[C@@H](n4cnc5c(N)ncnc54)[C@H](O)[C@@H]3O)[C@@H](O)[C@H]2O)c2nc(N)[nH]c(=O)c21", "note": "[m^7GpppA]", "values": [{"measurement": "interaction with DM15 region compared with m7GpppC-initiated mRNA targets", "value": "even tighter interaction"}]}]}
